Article doi:10.1101/2021.04.29.441652v1 (biorxiv, 2021)

What follows are compounds tested against human σ2 receptor (TMEM97) (Homo sapiens, UniProt Q5BJF2) (assay: biochemical). Settings: read-out: % of control remaining.
Chain of human σ2 receptor (TMEM97) (Q5BJF2 whole entry): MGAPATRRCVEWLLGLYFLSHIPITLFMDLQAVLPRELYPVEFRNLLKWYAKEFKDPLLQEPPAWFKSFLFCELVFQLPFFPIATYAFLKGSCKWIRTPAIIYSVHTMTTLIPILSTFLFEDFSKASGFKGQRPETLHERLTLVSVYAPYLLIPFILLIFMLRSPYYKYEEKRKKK
Type: Expi293 membranes
In the case of O[C@@H]1CC[C@@H]2CN(Cc3cccc4c[nH]nc34)C[C@@H]21 [ZINC000582751592], the remaining activity at 1 µM is reported as 72.4%. Fc1cccc(Cl)c1CNC1CCC2(CCCO2)CC1 (stereo not shown) [ZINC000584028046] was tested, and the remaining activity at 1 µM was 18.4%. CC1(C)Cc2cc(C(=O)N3CCC[C@@H](N4CCCC4)CC3)ccc2O1 [ZINC000584233558] showed a remaining activity at 1 µM of 22.7%. With C[C@@H](C(=O)NC[C@H](C)N1CCCC1)c1c(Cl)cccc1Cl [ZINC000586751050] the remaining activity at 1 µM was 98.2%. O=C(Cn1cc([N+](=O)[O-])ccc1=O)N1CC[C@H](N2CC[C@@H](O)C2)C1 [ZINC000588863575] showed a remaining activity at 1 µM of 134%. C[C@H](CN(C)CC(=O)NCc1cccc(Cl)c1)c1ccccc1 [ZINC000589606863] gave a remaining activity at 1 µM of 68.9%. Compound CC(C)Cc1ccc(C(=O)N2CCN([C@@H]3CCC[C@@H]3O)CC2)cc1 [ZINC000592403811] has a remaining activity at 1 µM of 153%. For CCCN1CC[C@H](NS(=O)(=O)c2ccc(C(=O)OC)cc2F)C1 [ZINC000595353335], the remaining activity at 1 µM was 97.7%. Work on N#Cc1sccc1N1CCN(CCCCCn2cccn2)CC1 [ZINC000595632104] yielded a remaining activity at 1 µM of 45.7%. Cc1cc([N+](=O)[O-])ccc1NC(=O)CN1CCC[C@@H]([C@@H]2CCCCO2)C1 [ZINC000595790972] gave a remaining activity at 1 µM of 96.1%. Compound CCc1c(C(=O)N[C@@H](C)C2CCN(C)CC2)cnn1-c1ccccc1 [ZINC000603324806] has a remaining activity at 1 µM of 65.5%. CC(C)Cc1ccc(C(=O)Nc2ccc(OCCN3CCN(C)CC3)cc2)cc1 [ZINC000608224751] was tested, and the remaining activity at 1 µM was 75.6%. With COC(=O)[C@H](NCC(C)(C)N1CCc2ccccc2C1)c1ccccc1 [ZINC000609803478] the remaining activity at 1 µM was 49.8%. In the case of COC(=O)[C@H](c1cccc(Cl)c1Cl)N1CCC[C@H](N2CCCC2)C1 [ZINC000611661177], the remaining activity at 1 µM is reported as 19.1%. Work on CCN1CC[C@H](N(CC)C(=O)c2cccc(C(F)(F)F)n2)C1 [ZINC000617924178] yielded a remaining activity at 1 µM of 126%. Work on CN(C)S(=O)(=O)N(C)CC(=O)N[C@@H]1COc2cc(F)ccc2C1 [ZINC000618647685] yielded a remaining activity at 1 µM of 91.7%. Compound CCCN1CCC[C@H]1C(=O)NCc1cnccc1C(F)(F)F [ZINC000621202771] has a remaining activity at 1 µM of 61.4%. CC(C)(CO)N1CCN(c2nc3c(Br)cccc3s2)CC1 [ZINC000621267824] was tested, and the remaining activity at 1 µM was 33.4%. C[C@@H]1CCCC[C@H]1OCCNC(=O)NC[C@H]1CCCCN(C)C1 [ZINC000623468108] was tested, and the remaining activity at 1 µM was 84.9%. Compound CC(C)CC[C@@H](CO)N[C@H](C)c1nc2c(s1)CCCC2 [ZINC000624110289] has a remaining activity at 1 µM of 49.3%. In the case of COCC(COC)N1CCN(S(=O)(=O)c2cnc(C)n2C)CC1 [ZINC000625246444], the remaining activity at 1 µM is reported as 105%. For O=C([C@@H]1CCCN1c1ncccn1)N1CC[C@@H](N2CC[C@H](O)C2)C1 [ZINC000627254962], the remaining activity at 1 µM was 114%. COc1ccccc1C[C@@](C)(CO)NCc1ccc2c(c1)ncn2C [ZINC000631236280] gave a remaining activity at 1 µM of 92%. Work on O=C(Nc1cscc1Cl)C(=O)N[C@@H]1CCN(CC2CC2)C1 [ZINC000635049325] yielded a remaining activity at 1 µM of 53.2%. In the case of Clc1ccc(O[C@H]2CCN(C3CCCC3)C2)cc1 [ZINC000645238909], the remaining activity at 1 µM is reported as 35.5%. C[C@@H](Cc1c(Cl)cccc1Cl)NC(=O)c1cn(C[C@@H]2CCCN2)nn1 [ZINC000646273308] gave a remaining activity at 1 µM of 106%. O=C(CN1CCC[C@@H]1[C@@H]1CCC[C@H]1O)N1CCOC[C@H]1C1CC1 [ZINC000649929688] was tested, and the remaining activity at 1 µM was 96.5%. Work on O=C(Nc1ccc2ncnn2c1)[C@]1(O)CCN(Cc2ccccc2)C1 [ZINC000655168559] yielded a remaining activity at 1 µM of 97.6%. Cc1cc(F)c(CN[C@@H]2CCN(c3ccccc3C(N)=O)C2)c(Cl)c1 [ZINC000656499190] showed a remaining activity at 1 µM of 71.5%. For OC[C@]1(CNC2=NCCCN2)CCc2ccccc21 [ZINC000656508398], the remaining activity at 1 µM was 55.9%. C[C@@H](Cc1ccc2c(c1)CCCC2)N[C@H]1CCN(C2CCOCC2)C1=O [ZINC000657922756] showed a remaining activity at 1 µM of 1.7%.
